Earlier results as cited in article PMC6377828 (Clinical cancer research : an official journal of the …, 2018).
Where two headings read alike, the source gives them in different places.

System: αvβ6-expressing xenograft tumor
Settings: murine xenograft models

Q: For [^18F]FBA-A20FMDV2, which tumor uptake (1 h) is on record?
A: 0.66 % ID/g

Q: And the tumor uptake (4 h)?
A: 0.06 % ID/g
